Source: ChEMBL document CHEMBL1147182, “Clubbed thiazoles by MAOS: a novel approach to cyclin-dependent kinase 5/p25 inhibitors as a potential treatment for Alzheimer's disease” (Bioorg Med Chem, 2007)

Tests used:
[1] = target: Cyclin-dependent kinase 5/CDK5 activator 1 (Homo sapiens, UniProt Q00535); test: Inhibition of human cdk5/p25 by SPA; format: protein-complex assay
[2] = Cytotoxicity against VeroC1008 cells at 6.25 to 50 ug/ml by neutral red uptake assay; format: cell-based; details: chlorocebus sabaeus, vero

Cyclin-dependent kinase 5/CDK5 activator 1, sequence (Q00535 whole entry): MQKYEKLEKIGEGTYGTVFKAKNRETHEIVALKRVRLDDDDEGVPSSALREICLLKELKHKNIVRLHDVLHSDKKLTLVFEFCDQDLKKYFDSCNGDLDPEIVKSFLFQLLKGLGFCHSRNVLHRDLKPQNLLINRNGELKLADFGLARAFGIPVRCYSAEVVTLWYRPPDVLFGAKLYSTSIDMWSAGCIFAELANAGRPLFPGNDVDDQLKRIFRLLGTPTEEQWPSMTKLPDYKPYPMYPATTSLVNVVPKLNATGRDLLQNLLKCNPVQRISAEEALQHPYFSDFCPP
Cyclin-dependent kinase 5/CDK5 activator 1, sequence (Q15078 whole entry, further chain): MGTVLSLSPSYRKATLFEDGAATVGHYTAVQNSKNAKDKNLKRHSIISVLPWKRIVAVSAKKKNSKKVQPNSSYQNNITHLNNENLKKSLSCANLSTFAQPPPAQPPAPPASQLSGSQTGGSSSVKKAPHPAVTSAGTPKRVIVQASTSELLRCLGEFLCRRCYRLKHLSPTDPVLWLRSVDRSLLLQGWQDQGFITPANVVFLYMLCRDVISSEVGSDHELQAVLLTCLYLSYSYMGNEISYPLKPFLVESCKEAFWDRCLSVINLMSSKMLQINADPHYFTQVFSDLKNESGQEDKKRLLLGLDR

| Structure (SMILES) | IC50 [1] | Activity [2] |
| --- | --- | --- |
| CC(=O)Nc1nc(Cc2nnc(SCSc3nnc(Cc4csc(NC(C)=O)n4)n3NC(=O)c3ccccc3)n2NC(=O)c2ccccc2)cs1 | 647 nM | Non-toxic |
| CC(=O)NNC(=O)CSc1nnc(Cc2csc(NC(=O)c3ccccc3)n2)n1NC(=O)c1ccccc1 | 564 nM | Non-toxic |
| CC(=O)Nc1nc(Cc2nnc(S)n2NC(=O)c2ccc(Cl)cc2)cs1 | 462 nM | Non-toxic |
| CC(=O)Nn1c(Cc2csc(NC(=O)c3ccccc3)n2)nnc1SCSc1nnc(Cc2csc(NC(=O)c3ccccc3)n2)n1NC(C)=O | 764 nM | Non-toxic |
| CC(=O)Nn1c(Cc2csc(NC(=O)c3ccccc3)n2)nnc1SCC(=O)NNC(=O)c1ccccc1 | 413 nM | Non-toxic |
| CC(=O)Nn1c(Cc2csc(NCCC(=O)O)n2)nnc1SCC(=O)NNC(=O)CCl | 264 nM | Non-toxic |
| COC(=O)CSc1nnc(Cc2csc(NCCC(=O)O)n2)n1NC(=O)c1ccc(Cl)cc1 | 560 nM | Non-toxic |
| O=C(O)CCNc1nc(Cc2nnc(SCC(=O)NNC(=O)CCl)n2NC(=O)c2ccccc2)cs1 | 462 nM | Non-toxic |
| COC(=O)CSc1nnc(Cc2csc(NC(C)=O)n2)n1NC(=O)c1ccc(Cl)cc1 | 380 nM | Non-toxic |
| NNC(=O)CSc1nnc(Cc2csc(NC(=O)c3ccccc3)n2)n1NC(=O)c1ccccc1 | 268 nM | Non-toxic |
| COC(=O)CSc1nnc(Cc2csc(NC(=O)c3ccccc3)n2)n1NC(=O)c1ccc(Cl)cc1 | 290 nM | Non-toxic |
| O=C(CSc1nnc(Cc2csc(NC(=O)CCl)n2)n1NC(=O)c1ccccc1)NNC(=O)c1ccccc1 | 467 nM | Non-toxic |
| CC(=O)NNC(=O)CSc1nnc(Cc2csc(NC(=O)c3ccccc3)n2)n1NC(=O)c1ccc(Cl)cc1 | 340 nM | Non-toxic |
| NNC(=O)CSc1nnc(Cc2csc(NCCC(=O)O)n2)n1NC(=O)c1ccccc1 | 465 nM | Non-toxic |
| CC(=O)NNC(=O)CSc1nnc(Cc2csc(NC(=O)CCl)n2)n1NC(C)=O | 354 nM | Non-toxic |
| O=C(CCl)NNC(=O)CSc1nnc(Cc2csc(NC(=O)c3ccccc3)n2)n1NC(=O)c1ccc(Cl)cc1 | 340 nM | Non-toxic |
| Nn1c(S)nnc1Cc1csc(NC(=O)CCl)n1 | 390 nM | Non-toxic |
| CC(=O)NNC(=O)CSc1nnc(Cc2csc(NCCC(=O)O)n2)n1NC(=O)c1ccc(Cl)cc1 | 352 nM | Non-toxic |
| O=C(CCl)NNC(=O)CSc1nnc(Cc2csc(NC(=O)CCl)n2)n1NC(=O)c1ccccc1 | 530 nM | Non-toxic |
| Nn1c(S)nnc1CSc1nnc(Cc2csc(NC(=O)CCl)n2)n1NC(=O)c1ccccc1 | 6990 nM | Non-toxic |

| Structure (SMILES) | IC50 [1] | Activity [2] |
| --- | --- | --- |
| CC(=O)Nc1nc(Cc2nnc(SCc3n[nH]c(=S)n3N)n2NC(=O)c2ccccc2)cs1 | 6540 nM | Non-toxic |
| N#CCSc1nnc(Cc2csc(NC(=O)CCl)n2)n1NC(=O)c1ccc(Cl)cc1 | 562 nM | Non-toxic |
| Nn1c(CSc2nnc(Cc3csc(NC(=O)c4ccccc4)n3)n2NC(=O)c2ccccc2)n[nH]c1=S | 4650 nM | Non-toxic |
| CC(=O)Nc1nc(Cc2nnc(SCc3nnc(S)n3N)n2NC(C)=O)cs1 | 5250 nM | Non-toxic |
| COC(=O)CSc1nnc(Cc2csc(NC(C)=O)n2)n1NC(C)=O | 467 nM | Non-toxic |
| O=C(CCl)Nc1nc(Cc2nnc(S)n2NC(=O)c2ccc(Cl)cc2)cs1 | 642 nM | Non-toxic |
| Nn1c(CSc2nnc(Cc3csc(NCCC(=O)O)n3)n2NC(=O)c2ccc(Cl)cc2)n[nH]c1=S | 6650 nM | Non-toxic |
| Nn1c(S)nnc1Cc1csc(NCCC(=O)O)n1 | 264 nM | Non-toxic |
| O=C(Nc1nc(Cc2nnc(S)n2NC(=O)c2ccc(Cl)cc2)cs1)c1ccccc1 | 186 nM | Non-toxic |
| CC(=O)Nn1c(Cc2csc(NC(=O)CCl)n2)nnc1SCc1nnc(S)n1N | 4640 nM | Non-toxic |
| O=C(CCl)NNC(=O)CSc1nnc(Cc2csc(NC(=O)CCl)n2)n1NC(=O)c1ccc(Cl)cc1 | 224 nM | Non-toxic |
| COC(=O)CSc1nnc(Cc2csc(NC(=O)c3ccccc3)n2)n1NC(C)=O | 598 nM | Non-toxic |
| CC(=O)Nn1c(Cc2csc(NCCC(=O)O)n2)nnc1SCC(=O)N/N=C/c1ccccc1 | 635 nM | Non-toxic |
| O=C(Nc1nc(Cc2nnc(SCSc3nnc(Cc4csc(NC(=O)c5ccccc5)n4)n3NC(=O)c3ccccc3)n2NC(=O)c2ccccc2)cs1)c1ccccc1 | 698 nM | Non-toxic |
| COC(=O)CSc1nnc(Cc2csc(NCCC(=O)O)n2)n1NC(C)=O | 746 nM | Non-toxic |
| CC(=O)Nn1c(Cc2csc(NCCC(=O)O)n2)nnc1SCC#N | 641 nM | Non-toxic |
| CC(=O)NNC(=O)CSc1nnc(Cc2csc(NC(C)=O)n2)n1NC(C)=O | 384 nM | Non-toxic |
| O=C(O)CCNc1nc(Cc2nnc(S)n2NC(=O)c2ccccc2)cs1 | 674 nM | Non-toxic |
| O=C(CCl)Nc1nc(Cc2nnc(SCSc3nnc(Cc4csc(NC(=O)CCl)n4)n3NC(=O)c3ccc(Cl)cc3)n2NC(=O)c2ccc(Cl)cc2)cs1 | 340 nM | Non-toxic |
| CC(=O)Nc1nc(Cc2nnc(SCC(=O)NN)n2NC(=O)c2ccccc2)cs1 | 197 nM | Non-toxic |

| Structure (SMILES) | IC50 [1] | Activity [2] |
| --- | --- | --- |
| CC(=O)Nc1nc(Cc2nnc(SCC(=O)NNC(=O)c3ccccc3)n2NC(C)=O)cs1 | 436 nM | Non-toxic |
| CC(=O)Nn1c(S)nnc1Cc1csc(NC(=O)CCl)n1 | 684 nM | Non-toxic |
| CC(=O)Nc1nc(Cc2nnc(SCC(=O)NNC(=O)c3ccccc3)n2NC(=O)c2ccc(Cl)cc2)cs1 | 534 nM | Non-toxic |
| CC(=O)Nn1c(Cc2csc(NCCC(=O)O)n2)nnc1SCc1nnc(S)n1N | 6410 nM | Non-toxic |
| CC(=O)NNC(=O)CSc1nnc(Cc2csc(NC(=O)c3ccccc3)n2)n1NC(C)=O | 643 nM | Non-toxic |
| CC(=O)Nc1nc(Cc2nnc(SCC(=O)NNC(=O)CCl)n2NC(=O)c2ccc(Cl)cc2)cs1 | 260 nM | Non-toxic |
| CC(=O)Nn1c(Cc2csc(NC(=O)CCl)n2)nnc1SCC(=O)NNC(=O)c1ccccc1 | 365 nM | Non-toxic |
| CC(=O)NNC(=O)CSc1nnc(Cc2csc(NC(C)=O)n2)n1NC(=O)c1ccccc1 | 542 nM | Non-toxic |
| CC(=O)NNC(=O)CSc1nnc(Cc2csc(NC(=O)CCl)n2)n1NC(=O)c1ccc(Cl)cc1 | 464 nM | Non-toxic |
| CC(=O)NNC(=O)CSc1nnc(Cc2csc(NCCC(=O)O)n2)n1NC(C)=O | 463 nM | Non-toxic |
| CC(=O)Nc1nc(Cc2nnc(SCC(=O)NNC(=O)c3ccccc3)n2NC(=O)c2ccccc2)cs1 | 421 nM | Non-toxic |
| CC(=O)Nc1nc(Cc2nnc(SCC(=O)NNC(=O)CCl)n2NC(C)=O)cs1 | 476 nM | Non-toxic |
| CC(=O)Nn1c(Cc2csc(NC(=O)CCl)n2)nnc1SCSc1nnc(Cc2csc(NC(=O)CCl)n2)n1NC(C)=O | 847 nM | Non-toxic |
| CC(=O)Nn1c(Cc2csc(NC(=O)CCl)n2)nnc1SCC#N | 415 nM | Non-toxic |
| O=C(O)CCNc1nc(Cc2nnc(SCSc3nnc(Cc4csc(NCCC(=O)O)n4)n3NC(=O)c3ccc(Cl)cc3)n2NC(=O)c2ccc(Cl)cc2)cs1 | 168 nM | Non-toxic |
| CC(=O)Nn1c(Cc2csc(NCCC(=O)O)n2)nnc1SCSc1nnc(Cc2csc(NCCC(=O)O)n2)n1NC(C)=O | 743 nM | Non-toxic |
| O=C(Nc1nc(Cc2n[nH]c(=S)n2NC(=O)c2ccccc2)cs1)c1ccccc1 | 894 nM | Non-toxic |
| CC(=O)Nn1c(Cc2csc(NC(=O)CCl)n2)nnc1SCC(=O)NN | 201 nM | Non-toxic |
| O=C(CCl)NNC(=O)CSc1nnc(Cc2csc(NC(=O)c3ccccc3)n2)n1NC(=O)c1ccccc1 | 542 nM | Non-toxic |
| Nn1c(CSc2nnc(Cc3csc(NC(=O)CCl)n3)n2NC(=O)c2ccc(Cl)cc2)n[nH]c1=S | 3260 nM | Non-toxic |
